What all share (assay type): biochemical
One experiment has as its target CtCel7A (Chaetomium thermophilum, UniProt A7WNU1). In words: Inhibition of synergistic hydrolysis of 14C-BC by CtCel7A (supplemented with EG TrCel5A). Conditions: 14C-BC substrate, read-out: IC50 for cellobiose. On the procedure:
(§1) To study the cellobiose inhibition of GH7 CBHs, the synergistic hydrolysis of ^14C-BC in the presence of added cellobiose was followed (Figure 3, Additional file 1: Figures S1 and S2). Because the cellobiose inhibition of the EG TrCel5A is much weaker than that of GH7 CBHs, the inhibition of synergistic hydrolysis apparently reflects the inhibition of CBH. The strength of cellobiose inhibition was analyzed using plots of (DCB/DCB=0) versus [cellobiose], where DCB and DCB=0 represent the degree of conversion of ^14C-BC in the presence and absence of cellobiose, respectively (Figure 4, Additional file 1: Figure S3). In the case of experiments without added cellobiose, the reactions were provided with N188BG to prevent the inhibition of the CBH by the cellobiose released during hydrolysis. Experiments with no added cellobiose and without BG were also conducted. […] Therefore, the concentration of the cellobiose released during hydrolysis was added to the concentration of externally supplied cellobiose in generating the plots in Figure 4 and Additional file 1: Figure S3. For the calculation of IC50 values, the data were first fitted to hyperbolae:
(§2) where [CB] is the concentration of cellobiose; [^14CBC] is the concentration of ^14C-BC used in the experiment; and C1, C2 and H are empirical constants. Equation 5 differs from Equation 1 by the presence of constant H. H was included to improve the fit and is a constant that accounts for the background radioactivity (the degree of conversion that is independent of CBH). The degree of conversion resulting from the activity of the EG was measured in a separate experiment (Additional file 1: Figure S4) and was subtracted from the degree of conversion resulting from the synergistic hydrolysis. Thus, in the case of complete inhibition, H should have a value of zero. […] Provided with the values of C1, C2 and H, the value of IC50 was calculated as follows: […]
(§3) Using the time course data measured in the presence and absence of cellobiose, the IC50 values were first found separately for each time point (Figure 4A). […]

The target of experiment [1] is T1, AtCel7A (Acremonium thermophilum, UniProt A7WNT9). In words: Inhibition of synergistic hydrolysis of 14C-BC by AtCel7A (supplemented with EG TrCel5A). The settings on record: 14C-BC substrate, read-out: IC50 for cellobiose. On the procedure:
as §1, §2, §3

In experiment [2] the target is T1, AtCel7A. In words: Cellobiose inhibition of MUL hydrolysis by AtCel7A. The settings on record: MUL substrate (5 μM). An excerpt: The cellobiose inhibition of GH7 CBHs is most often studied on low-Mw model substrates. However, it has been shown that the inhibition of CBHs acting on low-Mw substrates appears to be much stronger than that on cellulose substrates. The Ki values for cellobiose inhibition of GH7 CBHs measured on low-Mw substrates are in the micromolar range [44, 51, 52], whereas those measured on cellulose are in the low- to high-millimolar range [28, 31, 32]. […] Unfortunately, the inhibition of this enzyme on cellulose has not been studied. We also studied the cellobiose inhibition of GH7 CBHs acting on MUL. The initial rates of MUL hydrolysis measured in the presence and absence of added cellobiose were first analyzed according to Equation 1, and the IC50 values were found using Equation 2. […] The inhibition of MUL hydrolysis is attributable to the binding of cellobiose to the product sites (+1/+2) of TrCel7A [52]. […]
For the inhibition of enzyme acting on the low-Mw substrate, the initial rates of the hydrolysis of MUL in the presence and absence of added cellobiose were followed. […] Reactions were stopped by the addition of NH3 (final concentration 0.1 M), and the released 4-methylumbelliferone was quantified by fluorescence using excitation and emission wavelengths of 360 nm and 450 nm, respectively.

The mark [3] stands for this setting: 50°C, IC50 increased with hydrolysis time.

Read-outs that look alike come from different tables or passages of the source.

Chain of CtCel7A (A7WNU1 entry or part of it): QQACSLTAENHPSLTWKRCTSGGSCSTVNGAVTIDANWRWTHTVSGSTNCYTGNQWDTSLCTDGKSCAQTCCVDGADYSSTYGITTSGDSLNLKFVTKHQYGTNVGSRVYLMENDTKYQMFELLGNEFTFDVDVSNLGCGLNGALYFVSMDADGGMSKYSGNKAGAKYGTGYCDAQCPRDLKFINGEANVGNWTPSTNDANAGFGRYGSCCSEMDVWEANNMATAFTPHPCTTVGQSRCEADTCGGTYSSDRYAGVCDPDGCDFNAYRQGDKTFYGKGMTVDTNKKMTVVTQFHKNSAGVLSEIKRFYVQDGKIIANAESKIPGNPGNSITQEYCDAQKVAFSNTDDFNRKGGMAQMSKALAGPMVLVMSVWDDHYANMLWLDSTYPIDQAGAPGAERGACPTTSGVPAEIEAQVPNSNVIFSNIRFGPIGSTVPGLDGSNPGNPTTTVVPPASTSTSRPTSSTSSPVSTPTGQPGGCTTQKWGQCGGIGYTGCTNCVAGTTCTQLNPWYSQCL
T1 sequence (A7WNT9 entry or part of it): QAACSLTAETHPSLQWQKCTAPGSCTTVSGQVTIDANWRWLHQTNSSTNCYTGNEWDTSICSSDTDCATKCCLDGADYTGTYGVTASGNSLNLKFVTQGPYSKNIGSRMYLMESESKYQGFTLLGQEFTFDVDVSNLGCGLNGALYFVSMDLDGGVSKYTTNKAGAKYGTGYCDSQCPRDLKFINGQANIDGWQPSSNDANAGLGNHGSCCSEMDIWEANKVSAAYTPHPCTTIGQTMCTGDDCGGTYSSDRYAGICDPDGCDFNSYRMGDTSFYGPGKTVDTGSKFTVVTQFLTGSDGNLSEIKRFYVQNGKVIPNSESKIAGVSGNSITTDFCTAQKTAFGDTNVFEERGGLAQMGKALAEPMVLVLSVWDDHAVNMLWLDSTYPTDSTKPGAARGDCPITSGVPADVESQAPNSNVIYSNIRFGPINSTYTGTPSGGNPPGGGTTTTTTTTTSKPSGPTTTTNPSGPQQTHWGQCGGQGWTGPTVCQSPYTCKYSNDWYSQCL

The IC50 is the concentration at which inhibition is half-maximal. As a reminder, the Ki is the equilibrium dissociation constant of an inhibitor or competing ligand from its target. A lower Ki goes with a stronger hold on the target. With `O=C[C@H](O)[C@@H](O)[C@H](O[C@@H]1O[C@H](CO)[C@@H](O)[C@H](O)[C@H]1O)[C@H](O)CO` [cellobiose, Cellobiose], the IC50 at CtCel7A (25°C) came out at 410 ± 60 µM; at CtCel7A (35°C), 1080 ± 220 µM; on CtCel7A (setting [3]), 2480 ± 910 µM; at AtCel7A [1] (25°C, IC50 decreased with hydrolysis time), 190 ± 100 µM; on AtCel7A [1] (35°C) it was 440 ± 100 µM; at AtCel7A [1] (setting [3]), 2120 ± 1400 µM. For the same compound, the Ki at AtCel7A [2] (35°C) stood at 95 µM; at AtCel7A [2] (50°C), 233 µM.

Source of the values: article PMC3726336, “Product inhibition of cellulases studied with ^14C-labeled cellulose substrates” (Biotechnology for Biofuels, 2013).
